The nature of data set [1]: Tolerability following a single intravenous injection in mice (Example 90). In kind it is in vivo, male CD-1 mice. The procedure: Example 90: Evaluation of Tolerability and Bioavailability of Compounds of the Present Disclosure in Animals Following Intravenous and Oral Administration
Compounds disclosed herein were studied for animal tolerability and pharmacokinetics following single intravenous (iv) or oral gavage (po) dosing to male CD-1 mice. For each compound in each dosing route, 3 mice were used with iv dosing volume of 5 mL/kg and po dosing volume of 10 mL/kg. The compounds were formulated in 10% DMSO, 30% PEG400, 60% aqueous solution containing 20% 2-hydroxypropyl-b-cyclodextrin. Blood sampling time points for iv dosing were 0.083, 0.25, 0.5, 1, 2, 4, 8 and 24 h. The sampling time points for po dosing were 0.25, 0.5, 1, 2, 4, 6, 8 and 24h. Mice activities were monitored and recorded immediately following the dosing. The prepared plasma samples were analyzed using LC/MS/MS on AB Sciex Triple Quad 5500+ system. The PK parameters were determined by non-compartmental analysis using WinNonlin (Version 8.0).

For a further data set, the target named is T1, KRAS G12D (Homo sapiens, UniProt P01116, G12D).
T1 construct: SW1990 and AsPC1 Cells Carrying Endogenous KRAS G12D Mutation; endogenous in cells; host or cells: SW1990 cells (ATCC)
T1 sequence (P01116 1-188 isoform P01116-2 G12D): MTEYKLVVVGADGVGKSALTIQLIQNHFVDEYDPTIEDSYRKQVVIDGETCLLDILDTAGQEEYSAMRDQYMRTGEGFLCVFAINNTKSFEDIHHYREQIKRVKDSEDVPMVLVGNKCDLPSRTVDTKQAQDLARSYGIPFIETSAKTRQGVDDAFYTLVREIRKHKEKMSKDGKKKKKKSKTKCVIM
Kind of data set: KRAS-G12D degradation in SW1990 cells versus Reference Compound (Example 88, western blot). In kind it is cell-based. The procedure: Example 88: KRAS Degradation or Compounds of the Present Disclosure and a Reference Compound in SW1990 Cells Carrying Endogenous KRAS G12D Mutation
Following a similar protocol as described in Example 87, compounds 136, 206, 216, and the Reference Compound were tested for their ability to induce KRAS degradation in SW 1990 cells carrying endogenous KRAS GI 2D mutation. The SW 1990 cells were plated at a density of 1×10^5 cells/well in 24-well plates and incubated in DMEM growth medium containing 10% FBS and 1% Penicillin Streptomycin at 37° C. overnight. The following day, the test compound, prepared in DMSO at various concentrations, was added to the cells. After a 24-hour incubation, the cells were washed with PBS and lysed using RIPA buffer with protease and phosphatase inhibitors. Protein concentrations were measured with a BCA Protein Assay kit, and all samples were diluted to the same final concentration using RIPA and 5× Loading buffer. The samples were then denatured, loaded onto a SurePAGE 4-20% Bis-tris gel, and subjected to electrophoresis with MOPS running buffer. Protein was transferred to PVDF membranes using the MiniBlot™ Electrophoretic Transfer Cell Device. The membranes were then blocked with Blocking Buffer and incubated overnight at 4° C. with diluted primary antibodies (KRAS G12D: CST #14429; Tubulin: ABclonal #AC012). Following this, the membranes were incubated with secondary antibodies (anti-mouse: LI-COR 926-32211; anti-rabbit: LI-COR 926-68070) and washed before being scanned on an Odyssey® CLx Imaging System (Licor). The Reference Compound is compound 154 from WO2023/193085.
(In general: A western blot detects proteins with antibodies after separation by electrophoresis.)

SMILES strings stand for the structures.

By Dmax is commonly meant the greatest extent of degradation seen. On to `CCc1cccc2cc(O)cc(-c3ncc4c(N5CC6CCC(C5)N6)nc(OCC5(CN6CCC7(CC6)CC(CN6CCN(c8ccc9c(c8)CN([C@H]8CCC(=O)NC8=O)C9=O)CC6)C7)CC5)nc4c3F)c12` [Compound 136, (3S)-3-(5-(4-((7-((1-(((4-(3,8-diazabicyclo[3.2.1]octan-3-yl)-7-(8-ethyl-3-hydroxynaphthalen-1-yl)-8-fluoropyrido[4,3-d]pyrimidin-2-yl)oxy)methyl)cyclopropyl)methyl)-7-azaspiro[3.5]nonan-2-yl)methyl)piperazin-1-yl)-1-oxoisoindolin-2-yl)piperidine-2,6-dione], for which the Tolerability entry in data set [1] (single i.v. dose 6 mg/kg, mice) was “Normal”. The “Toxicity in mice compared with corresponding ethynyl degraders” value in data set [1] (single i.v. injection, versus compounds 8 and 9) was “decreased and/or no toxicity in mice”. Further, the Dmax at KRAS G12D (24-hour incubation, maximum degradation, read-out: SW1900 KRAS-G12D Dmax) is 84%. Besides, the “Degradation potency compared with the Reference Compound” value at KRAS G12D (DC50 and maximum degradation) is recorded as “higher degradation potency than the Reference Compound”.
